Measurements from patent US6588142B2, “Method of protecting plants from cold injury” (North Carolina State University, priority 2000, dated 2003).

Legend:
peanut [1] = assay: peanut field study, frost injury rating; format: in vivo; conditions: for Frost Injury, Pr > |T|: frost 66 days after last spray
Text: (§1) A peanut field was fumigated on April 28 with Metam sodium to control Cylindrocladium. The test plants were planted on May 22 with 16 different varieties of seed (Andru 93; Georgia Green; Tam Run 98; AT120; Southern Runner; Georgia Gold; Georgia Runner; 6K7WIDLEIL; FLA97R; FLAMDR98; FLA84x9B; NC7; VA93B; Perry; VA92R; VA98R), with a two-row planter. Temik and rhizobium were applied in furrow at standard rates. The spray date for the first treatment was July 20; the spray date for the second treatment was August 19. A tractor-mounted sprayer was used for all treatment sprays, with three hollow-cone nozzles per row at 40 psi, and 15 gal water/acre, at a height to cover the entire plant. Only the two treatment rows were sprayed. There were two unsprayed border rows between each treatment, to minimize interplot interference, and to assure even distribution of disease across plots. Herbicides, insecticides, and early leafspot control were applied according to standard practices across the field. Particular treatments were as follows:
(§2) (2) 15.22 fl. oz. Omega 500™ fluazinam 500F/acre (per spray)
(§3) (3) 30.44 fl. oz. Omega 500™ fluazinam 500F/acre (per spray)
(§4) (4) 60.88 fl. oz. Omega 500™ fluazinam 500F/acre (per spray)
(§5) (5) 32.0 fl. oz. Rovral™ brand iprodione+7.68 fl. oz. Nufilm™ adjuvant per acre (per spray)
Frost occurred on October 25. Frost ratings were done on November 2d. Rating Index: 1<5% green leaves, 4>50% green leaves; values between 1 and 4 were scaled from 5 to 50%. Stems were not rated, and varied from completely brown, to black, to bright green. When rating percentage of green leaves in a plot, those obviously dead from disease were ignored, and the rating was based on the remaining leaves.
(§6) Data: Statistics were run using the SAS System using the General Linear Models Procedure.

[2] = pH 7; cited from earlier work
peanut [3] = assay: peanut field study, yield per acre; format: in vivo
Text: as §1, §2, §3, §4, §5
Peanuts were dug on November 10, and harvested on November 15. Moisture samples were taken from untreated plots of each variety. Yields were adjusted to 9% moisture.
as §6

Sclerotinia blight = assay: peanut field study, disease incidence; format: in vivo
Text: as §1, §2, §3, §4, §5, §6

[4] = treatment effect on various peanut cultivars

Compound: O=[N+]([O-])c1cc(C(F)(F)F)c(Cl)c([N+](=O)[O-])c1Nc1ncc(C(F)(F)F)cc1Cl [fluazinam]
- Frost Injury, Pr > |T| (peanut [1]; High Rate vs Control): 0.0001
- Frost Injury, Pr > |T| (peanut [1]; High Rate vs Rovral): 0.0001
- frost protection (peanut [1]; high rate, compared to both Untreated Control and Rovral): statistically significantly better frost protection
- frost injury (peanut [1]; [4]): significantly reduced
- water solubility [2]: 0.071 ppm
- Yield/Acre, Pr > |T| (peanut [3]; High Rate vs Control): 0.0001
- Yield/Acre, Pr > |T| (peanut [3]; High Rate vs Rovral): 0.0001
- yields (peanut [3]; high rate, vs both Untreated Control and Rovral): statistically significantly higher
- yields (peanut [3]; treatment effect): significantly higher
- Disease Incidence, Pr > |T| (Sclerotinia blight; High Rate vs Control): 0.0001
- Disease Incidence, Pr > |T| (Sclerotinia blight; High Rate vs Rovral): 0.3911
- disease control (Sclerotinia blight; High Rate vs Rovral): not significantly better
- disease control (Sclerotinia blight; high rate, vs Untreated Control): statistically significantly better disease control
- Sclerotinia blight (Sclerotinia blight; [4]): significantly reduced
